From publication PMC11022729 (Advanced Science, 2024)

How the values were obtained:
[1] = biological target: T1, muscarinic M1 receptor (Homo sapiens, UniProt P11229); experiment: biochemical; conditions: read-out: binding inhibition
T1 construct: purchased Eurofins Cerep P270
Protocol: (§1) Measurements were performed in duplicate.
(§2) channel, which were obtainedfrom ratspecimens).
(§3) in brackets) specific for each target.

[2] = biological target: T2, muscarinic M3 receptor (Homo sapiens, UniProt P20309); experiment: biochemical; conditions: read-out: binding inhibition
T2 construct: purchased Eurofins Cerep P270
Protocol: as §1, §2, §3

[3] = test system: mice; experiment: Observation of mouse behavior / signs of toxicity after systemic administration; assay type: in vivo
Excerpt: To prepare for in vivo studies, we investigated the pharmacokinetic properties of compound 6. […] For comparison, we determined the plasma and brain loxapine levels. […] Collectively, the pharmacological and pharmacokinetic profiles of compound 6 make it an excellent molecule for in vivo pharmacodynamic studies.
With regard to the safety profile, it should be considered that Slack is expressed in various neuronal populations in the CNS, and gain‐of‐function mutations of KCNT1 have been associated with epileptic encephalopathies in humans.^[ [46] ^] Limited information exists concerning the incidence of seizures during loxapine treatment. […] However, the epileptogenic potential of brain‐penetrant Slack activators such as compound 6 should be carefully assessed in the future.

[4] = test system: mice; experiment: MC903 model of persistent itch; assay type: in vivo, mouse; conditions: i.p. at day 8, vs vehicle
Protocol: We next assessed the efficacy of compound 6 in the treatment of chronic itching. […] These findings are important because they indicate that Slack activators can reduce existing itching.
Chronic itching was induced using the MC903 model.^[ [48] ^] The fur on the dorsolateral aspect of the neck was shaved under brief isoflurane anesthesia. Five days later, 20 µL MC903 (0.2 mM; Calcipotriol, Tocris) solved in absolute ethanol was applied to the skin at the back of the neck under brief anesthesia for 7 consecutive days. On day 8, the mice were habituated for 30 min in a plexiglass cylinder (30 cm in diameter). Compound 6 hydrochloride or vehicle was administered i.p., and 15 min later, spontaneous scratching was recorded over 30 min by videotaping.

[5] = biological target: histamine H1 receptor (Homo sapiens, UniProt P35367); experiment: [3H]-pyrilamine competition binding assay; set-up: expressed in transfected cells; host or cells: CHO
Protocol: For membrane preparations of CHO cells stably expressing the human histamine H1 receptor (H1R), cells were washed and harvested with PBS buffer, homogenized by sonication (3 × 15 s) in ice‐cold HEPES‐H1R binding buffer (20 mM HEPES, 10 mM MgCl2, and 100 mM NaCl), followed by a centrifugation step (20 000 × g, 30 min, 4 °C). The resulting cell pellet was resuspended in binding buffer and homogenized using a hand potter. Membrane extracts were stored at −80 °C. Prior to use, the membranes were handled as described for D2R/D3R. […] Assays were performed at least in duplicates with appropriate concentrations between 0.1 nM and 100 µM of the test compound. […] The subsequent procedure was performed as described for D2R/D3R.

histamine H1 receptor, sequence (P35367 whole entry): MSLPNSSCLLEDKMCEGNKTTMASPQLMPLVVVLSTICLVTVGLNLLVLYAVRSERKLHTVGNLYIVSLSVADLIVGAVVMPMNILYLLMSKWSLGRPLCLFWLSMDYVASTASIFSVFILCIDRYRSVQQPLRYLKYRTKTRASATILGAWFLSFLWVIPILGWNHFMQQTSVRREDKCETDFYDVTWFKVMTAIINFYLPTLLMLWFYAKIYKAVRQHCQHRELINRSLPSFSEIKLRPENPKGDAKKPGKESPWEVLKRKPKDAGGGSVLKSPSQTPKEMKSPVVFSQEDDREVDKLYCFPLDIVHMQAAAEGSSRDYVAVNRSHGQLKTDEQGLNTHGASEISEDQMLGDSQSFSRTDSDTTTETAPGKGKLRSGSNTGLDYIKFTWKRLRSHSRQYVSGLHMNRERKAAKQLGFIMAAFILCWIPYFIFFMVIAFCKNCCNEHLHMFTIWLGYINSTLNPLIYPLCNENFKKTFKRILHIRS
T1 sequence (P11229 whole entry): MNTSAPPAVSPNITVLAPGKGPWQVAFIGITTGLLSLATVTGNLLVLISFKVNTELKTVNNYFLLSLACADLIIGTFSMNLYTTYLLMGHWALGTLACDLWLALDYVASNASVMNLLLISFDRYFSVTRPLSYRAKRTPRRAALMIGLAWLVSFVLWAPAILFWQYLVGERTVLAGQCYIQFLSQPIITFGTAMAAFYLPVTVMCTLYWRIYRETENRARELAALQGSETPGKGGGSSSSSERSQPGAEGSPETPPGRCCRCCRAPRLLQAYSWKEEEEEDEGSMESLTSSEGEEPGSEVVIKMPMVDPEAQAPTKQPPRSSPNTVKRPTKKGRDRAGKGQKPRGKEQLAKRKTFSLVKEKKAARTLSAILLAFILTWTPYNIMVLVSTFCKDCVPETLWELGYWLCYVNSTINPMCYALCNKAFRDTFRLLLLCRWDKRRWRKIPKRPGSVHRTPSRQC
T2 sequence (P20309 whole entry): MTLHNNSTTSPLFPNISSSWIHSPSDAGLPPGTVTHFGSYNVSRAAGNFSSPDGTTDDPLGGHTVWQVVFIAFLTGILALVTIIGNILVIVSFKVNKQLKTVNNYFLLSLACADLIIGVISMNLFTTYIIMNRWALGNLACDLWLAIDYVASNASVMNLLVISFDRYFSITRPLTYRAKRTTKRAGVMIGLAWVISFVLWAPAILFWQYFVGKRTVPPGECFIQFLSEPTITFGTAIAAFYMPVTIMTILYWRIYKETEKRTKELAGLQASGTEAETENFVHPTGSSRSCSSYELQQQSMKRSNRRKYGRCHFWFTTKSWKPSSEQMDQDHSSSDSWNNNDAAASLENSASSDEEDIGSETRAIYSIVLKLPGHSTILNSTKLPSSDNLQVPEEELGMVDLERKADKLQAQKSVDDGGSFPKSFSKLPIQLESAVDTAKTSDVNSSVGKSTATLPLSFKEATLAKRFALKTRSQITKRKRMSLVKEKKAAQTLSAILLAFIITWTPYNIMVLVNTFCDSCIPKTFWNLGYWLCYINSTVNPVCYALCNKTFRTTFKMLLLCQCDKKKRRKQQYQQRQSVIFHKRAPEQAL

SMILES | inhibition at 10 µM [1] | inhibition at 10 µM [2] | impairment of mouse behavior ([3]; 10 mg kg−1 i.p.) | overt signs of seizures ([3]; systemic administration, doses up to 30 mg kg−1) | head shaking [4] | scratching [4] | affinity for histamine H1 receptors [5] | Ki ([5]; mean [CI 95%])
CN1CCN(C2=Nc3ccccc3Oc3ccc(Cl)cc32)CC1 [Loxapine, reference compound] | > 50% | > 50% | – | – | – | – | – | –
O=C(O)COCCN1CCN(C2=Nc3ccccc3Oc3ccc(Cl)cc32)CC1 [Compound 6] | – | – | No obvious impairment of mouse behavior | did not observe any overt signs of seizures | significantly ameliorated | significantly ameliorated | low affinity | 575 nM
